Assay results published in patent US5942535A, “[a]-Annelated pyrrole derivatives and pharmaceutical use thereof” (Merckle GmbH, priority 1994, dated 1999).

Columns and labels:
5-lipoxygenase (LO) = biological target: T1, 5-lipoxygenase (LO) (Bos taurus, UniProt F1MQ78); assay: Inhibition of the enzyme 5-lipoxygenase (LO); format: biochemical; conditions: first figure of cell 'LO/CO'; decimal comma; concentration unit inferred; read-out: 7) IC50 LO
T1 construct: endogenous in cells
T1 sequence (F1MQ78 1-674): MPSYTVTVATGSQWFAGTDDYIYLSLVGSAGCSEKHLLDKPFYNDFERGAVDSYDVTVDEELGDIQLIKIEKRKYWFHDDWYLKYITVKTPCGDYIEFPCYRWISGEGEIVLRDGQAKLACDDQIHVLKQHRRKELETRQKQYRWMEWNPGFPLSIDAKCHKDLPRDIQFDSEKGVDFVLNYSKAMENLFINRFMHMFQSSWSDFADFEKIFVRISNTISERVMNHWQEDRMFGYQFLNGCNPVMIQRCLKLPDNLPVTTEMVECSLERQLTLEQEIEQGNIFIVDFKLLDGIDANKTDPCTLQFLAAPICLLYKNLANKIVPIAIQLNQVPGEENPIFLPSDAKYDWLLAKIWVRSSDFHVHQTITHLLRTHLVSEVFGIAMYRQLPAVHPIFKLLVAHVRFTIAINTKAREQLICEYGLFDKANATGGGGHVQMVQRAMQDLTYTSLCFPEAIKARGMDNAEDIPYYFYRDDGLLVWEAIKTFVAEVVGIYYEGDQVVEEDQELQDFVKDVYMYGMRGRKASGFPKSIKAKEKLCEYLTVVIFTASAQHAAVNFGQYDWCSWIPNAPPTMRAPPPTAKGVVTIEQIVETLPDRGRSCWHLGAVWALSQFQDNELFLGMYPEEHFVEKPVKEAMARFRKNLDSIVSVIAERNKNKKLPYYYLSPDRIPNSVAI
Source text: (§1) 7) IC50 /LO/CO: Inhibition of the enzyme cyclooxygenase (CO) and 5-lipoxygenase (LO), Dannhardt et al., J. Pharm. Pharmacol. 1992, 44:419-424.

cyclooxygenase (CO) = biological target: T2, cyclooxygenase (CO) (Bos taurus, UniProt O62664); assay: Inhibition of the enzyme cyclooxygenase (CO); format: biochemical; conditions: second figure of cell 'LO/CO'; decimal comma; concentration unit inferred; read-out: 7) IC50 CO
T2 construct: endogenous in cells
T2 sequence (O62664 25-600): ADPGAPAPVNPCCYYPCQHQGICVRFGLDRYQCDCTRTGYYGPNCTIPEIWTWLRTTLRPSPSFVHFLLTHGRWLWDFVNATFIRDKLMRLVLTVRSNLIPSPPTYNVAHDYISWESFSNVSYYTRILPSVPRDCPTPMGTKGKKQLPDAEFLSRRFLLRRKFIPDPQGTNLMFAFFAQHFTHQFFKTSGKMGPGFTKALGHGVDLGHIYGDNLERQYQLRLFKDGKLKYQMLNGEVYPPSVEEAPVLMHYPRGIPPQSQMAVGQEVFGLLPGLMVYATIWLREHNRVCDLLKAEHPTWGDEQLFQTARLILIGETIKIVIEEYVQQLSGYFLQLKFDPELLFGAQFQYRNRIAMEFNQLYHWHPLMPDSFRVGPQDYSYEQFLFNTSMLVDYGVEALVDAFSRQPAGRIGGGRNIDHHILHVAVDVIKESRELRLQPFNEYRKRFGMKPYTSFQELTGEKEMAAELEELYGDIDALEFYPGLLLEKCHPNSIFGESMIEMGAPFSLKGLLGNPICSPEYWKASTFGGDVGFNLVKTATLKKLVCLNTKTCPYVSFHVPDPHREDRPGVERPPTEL
Source text: as §1

Row | SMILES | degraded at 24 h (physchem; aqueous solution) | half-life (physchem; chloroform) | IC50 (5-lipoxygenase (LO)) | IC50 (cyclooxygenase (CO))
1 | CC1(C)Cc2c(-c3ccccc3)c(-c3ccc(Cl)cc3)c(CC(=O)O)n2C1 [6-(4-chlorophenyl)-2,2-dimethyl-7-phenyl-2,3-dihydro-1H-pyrrolizin-5-yl acetic acid] | ~2% | ~1 h | – | –
2 | CC1(C)Cc2c(-c3ccccc3)c(-c3ccc(Cl)cc3)c(CC(=O)NS(C)(=O)=O)n2C1 [Example 4] | – | – | 0.23 µM | 0.15 µM
